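Five compound concentrations were applied to cells in 96-well plates for 48 hours; endpoints were derived by simple linear interpolation of the resulting dose-response curve. Here, GI50 denotes the concentration required for 50% inhibition of growth.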 Activity calls are given as the source filed them. Rule as the data show it: active = GI50 up to about 1.1 µM and inactive = higher.
What was measured:
Assay in all cases: NCI tumour cell line growth inhibition, 48 h
[1] = tested on: 786-0
[2] = tested on: BT-549
[3] = tested on: COLO 205
[4] = tested on: HCC 2998
[5] = tested on: HCT-116
[6] = tested on: HL-60
[7] = tested on: MDA-N
[8] = tested on: MOLT-4
[9] = tested on: NCI-H23
[10] = tested on: NCI-H460
[11] = tested on: OVCAR-3
[12] = tested on: OVCAR-4
[13] = tested on: RXF 393
[14] = tested on: SF-295
[15] = tested on: SK-MEL-5
[16] = tested on: SN12C
[17] = tested on: SW-620
[18] = tested on: TK-10
[19] = tested on: UO-31

SMILES	GI50 [1]	GI50 [2]	GI50 [3]	GI50 [4]	GI50 [5]	GI50 [6]	GI50 [7]	GI50 [8]	GI50 [9]	GI50 [10]	GI50 [11]	GI50 [12]	GI50 [13]	GI50 [14]	GI50 [15]	GI50 [16]	GI50 [17]	GI50 [18]	GI50 [19]
CC1=NN(c2nc(N)nc(/C(C#N)=C/c3ccc([N+](=O)[O-])o3)n2)C(C)(C)C1	1.57 µM (inactive)	3.34 µM (inactive)	1.65 µM (inactive)	15.8 µM (inactive)	1.45 µM (inactive)	2.35 µM (inactive)	3.05 µM (inactive)	2.26 µM (inactive)	3.45 µM (inactive)	2.57 µM (inactive)	3.32 µM (inactive)	10.2 µM (inactive)	1.75 µM (inactive)	16.5 µM (inactive)	5.4 µM (inactive)	1.88 µM (inactive)	1.76 µM (inactive)	2 µM (inactive)	2.92 µM (inactive)
CCn1c2ccc(C(=O)CCCN3CCCCC3)cc2c2cc(C(=O)CCCN3CCCCC3)ccc21	0.938 µM (active)	16.9 µM (inactive)	2.67 µM (inactive)	5.94 µM (inactive)	1.78 µM (inactive)	13.2 µM (inactive)	2.22 µM (inactive)	0.524 µM (active)	2.13 µM (inactive)	0.998 µM (active)	2.11 µM (inactive)	1.33 µM (inactive)	2.63 µM (inactive)	2.43 µM (inactive)	1.56 µM (inactive)	4.16 µM (inactive)	1.01 µM (active)	2.91 µM (inactive)	5.32 µM (inactive)
Cc1nnc2sc(-c3ccc([N+](=O)[O-])o3)nn12	10.3 µM (inactive)	10.7 µM (inactive)	13.2 µM (inactive)	12.5 µM (inactive)	6.46 µM (inactive)	2.47 µM (inactive)	5.96 µM (inactive)	3.15 µM (inactive)	15.5 µM (inactive)	17.9 µM (inactive)	12.8 µM (inactive)	15 µM (inactive)	11.6 µM (inactive)	16.9 µM (inactive)	11.8 µM (inactive)	11.6 µM (inactive)	4.85 µM (inactive)	15.3 µM (inactive)	15.2 µM (inactive)
C=C(Br)C(Br)(CCl)CCC(Cl)C(C)C.C=C(Cl)C(Br)(CCl)CCC(Cl)C(C)C (stereo not given)	1.36 µM (inactive)	1.7 µM (inactive)	2.13 µM (inactive)	3.01 µM (inactive)	1.75 µM (inactive)	0.413 µM (active)	1.71 µM (inactive)	0.439 µM (active)	1.79 µM (inactive)	1.57 µM (inactive)	2.29 µM (inactive)	1.94 µM (inactive)	2.18 µM (inactive)	6.92 µM (inactive)	1.82 µM (inactive)	1.66 µM (inactive)	1.53 µM (inactive)	2.14 µM (inactive)	1.63 µM (inactive)
O=C(c1cccs1)N(C(=S)OC12CC3CC(CC(C3)C1)C2)c1ccccc1	35.4 µM (inactive)	35.3 µM (inactive)	17.7 µM (inactive)	32.6 µM (inactive)	22.2 µM (inactive)	25 µM (inactive)	31.4 µM (inactive)	26.1 µM (inactive)	30.2 µM (inactive)	33.3 µM (inactive)	34.6 µM (inactive)	35 µM (inactive)	62.2 µM (inactive)	27.9 µM (inactive)	22.1 µM (inactive)	27 µM (inactive)	40.7 µM (inactive)	44 µM (inactive)	18.7 µM (inactive)
COc1ccc2c(-c3ccc(O)cc3)c(Oc3ccccc3)c(=O)oc2c1	12.3 µM (inactive)	95.9 µM (inactive)	> 100 µM (inactive)	18.3 µM (inactive)	> 23.2 µM (inactive)	7.96 µM (inactive)	> 100 µM (inactive)	5.11 µM (inactive)	2.63 µM (inactive)	11.9 µM (inactive)	5.4 µM (inactive)	9.62 µM (inactive)	11.8 µM (inactive)	25.5 µM (inactive)	3.95 µM (inactive)	–	–	3.74 µM (inactive)	3.13 µM (inactive)
COC1=NC(NC2OCC(O)C(O)C2O)=C(NC(C)=O)CN1C (stereo not given)	> 100 µM (inactive)	> 100 µM (inactive)	> 100 µM (inactive)	> 100 µM (inactive)	> 100 µM (inactive)	> 100 µM (inactive)	> 100 µM (inactive)	> 100 µM (inactive)	> 100 µM (inactive)	> 100 µM (inactive)	> 100 µM (inactive)	> 100 µM (inactive)	> 100 µM (inactive)	> 100 µM (inactive)	> 100 µM (inactive)	–	> 100 µM (inactive)	> 100 µM (inactive)	> 100 µM (inactive)

Reference: ChEMBL document CHEMBL1201862, “PubChem BioAssay data set” (2004)
